# Active and inactive are the calls of the source.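 How the source made its calls: active means IC50 of 10 µM or lower; inactive means IC50 above 10 µM.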
# Molecular target: Guanyl-specific ribonuclease T1 (Aspergillus oryzae (strain ATCC 42149 / RIB 40)) (UniProt P00651)
# Test: dose-dependent blockade of Aspergillus RNase T1 – biochemical, fluorescence polarization, IC50, counter-screen for TPT1 inhibitor project, late-stage follow-up (AID 2837)
# Conditions: RNase T1 cleavage of B-U6G-AF
# Guanyl-specific ribonuclease T1 (Aspergillus oryzae (strain ATCC 42149 / RIB 40)), sequence (P00651 whole entry, looked up): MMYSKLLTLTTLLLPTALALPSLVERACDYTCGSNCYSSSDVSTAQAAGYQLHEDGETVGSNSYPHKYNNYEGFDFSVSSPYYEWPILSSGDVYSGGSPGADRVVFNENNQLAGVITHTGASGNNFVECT
row,Structure (SMILES),IC50
1,Cc1ccc(N2C(=O)NC(=O)/C(=C\c3ccc([N+](=O)[O-])o3)C2=O)cc1,inactive
2,Cc1ccccc1N1C(=O)/C(=C/c2ccco2)C(=O)NC1=S,inactive
3,NS(=O)(=O)c1cc(C(=O)NC2CCSc3ccccc32)ccc1Cl (stereo not given),> 49.8 µM (inactive)
4,OC(Cn1cncn1)(Cn1cncn1)c1ccc(F)cc1F,> 49.8 µM (inactive)
5,NC(=O)c1cc[n+](CC2=C(C(=O)O)N3C(=O)[C@@H](NC(=O)C(c4ccccc4)S(=O)(=O)O)[C@H]3SC2)cc1 (stereo not given in full),> 49.8 µM (inactive)
6,COc1ccc(OC)c(N2C(=O)/C(=C/c3ccco3)C(=O)NC2=S)c1,inactive
7,CC1=C(C#N)C(=O)N(C2CCS(=O)(=O)C2)C(=O)/C1=C\c1ccco1 (stereo not given),> 49.8 µM (inactive)
8,O=c1oc2c(O)c(O)cc3c(=O)oc4c(O)c(O)cc1c4c23,> 49.8 µM (inactive)
9,Cc1[nH]n(-c2ccc(S(=O)(=O)O)cc2)c(=O)c1N[N-]c1ccc(C2=CC(=O)/C(=N\[N-]c3ccc4c(S(=O)(=O)O)cc(S(=O)(=O)O)c(N)c4c3O)C=C2)cc1O.[Cu+].[Cu+],> 49.8 µM (inactive)
10,Cc1cc(C)n(Cc2ccc(C(=O)NN=Cc3ccc(-c4ccc([N+](=O)[O-])cc4)o3)o2)n1,inactive

# — PubChem BioAssay AID2837 (The Scripps Research Institute Molecular Screening Center, 2010)
